In patent publication EP0308983A2, “NMR imaging with Mn(II) coordination compositions” (priority 1987, dated 1989):

Key:
[1] = Paramagnetic relaxation properties in water at 10 MHz (0.15T), RADX spin analyzer; type: physicochemical; settings: for spin-lattice (T₁) relaxation value / spin-spin (T₂) relaxation value / millimolar relaxivity for T₁ / millimolar relaxivity for T₂ / Relaxivity (mM⁻¹sec⁻¹) Spin-Lattice / Relaxivity (mM⁻¹sec⁻¹) Spin-Spin: 10 MHz (0.15T); for millimolar relaxivity for T₁ / millimolar relaxivity for T₂: in water; for millimolar relaxivity for T₁: calculated from T₁ and concentration; for millimolar relaxivity for T₂: calculated from T₂ and concentration; for Spin-Spin Relaxivity: 0.15 T (10 MHz)
Method: The paramagnetic relaxation properties of [manganese(II)·(H₂O)₂·(L-alanine)₂]⁺²(Cl₂)⁻² in water were measured at 10 MHz (0.15T) with a spin analyzer (RADX; Houston, TX) at 37°C. After thermal equilibrium, the spin-lattice (T₁) and spin-spin (T₂) relaxation values were measured in triplicate.
The paramagnetic relaxation of the title compound in water was measured at 10 MHz (0.15T) with a spin analyzer (RADX; Houston, TX). After thermal equilibrium, the spin-lattice (T₁) and spin-spin (T₂) relaxation values were measured.
Relaxivity was measured at 10 MHz (0.15T) as described in Example 10.
The relaxivity of the title compound was performed at 0.15 T (10 MHz) with a RADX Spin Analyzer (Houston, TX) at 37°C.

[2] = Paramagnetic relaxation properties in human plasma at 37°C; type: physicochemical; settings: for T₂ value / T₁ value / R₁ / R₂ / T₁ changed by (repeat measurement) / T₂ changed by (repeat measurement): 37°C; for T₁ value: triplicate; for T₁ changed by (repeat measurement) / T₂ changed by (repeat measurement): repeat measurement 80 minutes later; for T₂ relaxivity in plasma, fold greater than GdDTPA: versus GdDTPA; for T₁ relaxivity in plasma, fold greater than GdDTPA: versus gadolinium diethylenetriaminepentaacetic acid chelate (GdDTPA)
[3] = 0.94 mM solution in water, 37°C, triplicate, mean +/- SD
[4] = 0.90 mM solution in water, 37°C, triplicate, mean +/- SD
[5] = 0.97 mM solution in water, 37°C, triplicate, mean +/- SD

Row | Molecule | millimolar relaxivity for T₁ [1] [mM⁻¹ s⁻¹] | millimolar relaxivity for T₂ [1] [mM⁻¹ s⁻¹] | R₁ [2] [mM⁻¹ s⁻¹] | R₂ [2] [mM⁻¹ s⁻¹] | T₁ changed by (repeat measurement) [2] | T₂ changed by (repeat measurement) [2] [%] | T₂ relaxivity in plasma, fold greater than GdDTPA [2] [fold] | T₁ relaxivity in plasma, fold greater than GdDTPA [2] [fold] | also measured
1 | NC(=O)C[C@H]([NH3+])C(=O)[O-].NC(=O)C[C@H]([NH3+])C(=O)[O-].O.O.[Cl-].[Cl-].[Mn+2] [Manganese(II)·(H₂O)₂·(L-asparginine)₂]⁺²(Cl₂)⁻²] | 9.09 | 36.7 | 45.5 | 58.5 | 7% | 2 | 12.2 | 9.5 | spin-lattice (T₁) relaxation value [1, 3]: 117 ± 5 ms; spin-spin (T₂) relaxation value [1, 3]: 29 ± 1 ms; T₂ value ([2]; 90 µM final concentration): 190 ± 3 ms; T₁ value ([2]; 90 µM final concentration): 244 ± 20 ms
2 | N[C@@H](CC(=O)O)C(=O)O.N[C@@H](CC(=O)O)C(=O)O.O.O.[Cl-].[Cl-].[Mn+2] [Manganese(II)·(H₂O)₂·(L-aspartic acid)₂]⁺²(Cl₂)⁻²] | 9.58 | 39.7 | 46.3 | 61.2 | did not change | 3 | 12.8 | 9.7 | spin-lattice (T₁) relaxation value [1, 4]: 116 ± 3 ms; spin-spin (T₂) relaxation value [1, 4]: 28 ± 1 ms; T₂ value ([2]; 86 µM final concentration): 190 ± 12 ms; T₁ value ([2]; 86 µM final concentration): 251 ± 12 ms
3 | N[C@@H](CS)C(=O)O.N[C@@H](CS)C(=O)O.O.O.[Cl-].[Cl-].[Mn+2] [Manganese(II)·(H₂O)₂·(L-cysteine)₂]⁺²(Cl₂)⁻²] | 9.82 | 41.2 | 44.0 | 57.2 | 4% | 1 | 11.9 | 9.2 | spin-lattice (T₁) relaxation value [1, 5]: 105 ± 4 ms; spin-spin (T₂) relaxation value [1, 5]: 25 ± 1 ms; T₂ value ([2]; 92 µM final concentration): 190 ± 17 ms; T₁ value ([2]; 92 µM final concentration): 247 ± 14 ms
4 | NCCCC[C@H](N)C(=O)O.NCCCC[C@H](N)C(=O)O.O.O.[Cl-].[Cl-].[Mn+2] [Manganese(II)·(H₂O)₂·(L-lysine)₂]⁺²(Cl₂)⁻²] | 9.55 | 39.7 | 47.3 | 56.6 | 3% | 3 | 11.8 | 9.9 | spin-lattice (T₁) relaxation value [1, 5]: 108 ± 9 ms; spin-spin (T₂) relaxation value [1, 5]: 26 ± 1 ms; T₂ value ([2]; 92 µM final concentration): 192 ± 8 ms; T₁ value ([2]; 92 µM final concentration): 230 ± 9 ms
5 | CSCC[C@H](N)C(=O)O.CSCC[C@H](N)C(=O)O.O.O.[Cl-].[Cl-].[Mn+2] [Manganese(II)·(H₂O)₂·(L-methionine)₂]⁺²(Cl₂)⁻²] | 9.73 | 38.2 | 42.3 | 52.8 | 1% | 5 | 11.2 | 8.8 | spin-lattice (T₁) relaxation value [1, 5]: 106 ± 2 ms; spin-spin (T₂) relaxation value [1, 5]: 27 ± 1 ms; T₂ value ([2]; 92 µM final concentration): 202 ± 9 ms; T₁ value ([2]; 92 µM final concentration): 257 ± 18 ms
6 | NC(CO)C(=O)O.O.O.O.O=C([O-])C(O)C(O)C(O)C(O)CO.O=C([O-])C(O)C(O)C(O)C(O)CO.[Mn+2] [[Manganese(II)(H₂O)₃-L-Serine]Digluconate] | 9.35 | 37.0 | – | – | – | – | – | – | spin-lattice (T₁) relaxation value ([1]; 1 mM solution in water): 107 ms; spin-spin (T₂) relaxation value ([1]; 1 mM solution in water): 27 ms
7 | CC(=O)[O-].C[C@H](N)C(=O)O.C[C@H](N)C(=O)O.C[C@H](N)C(=O)O.O.[I-].[Mn+2] [[Manganese(II)H₂O(L-Alanine)₃](Acetate Iodide)] | 9.62 | 38.5 | – | – | – | – | – | – | spin-lattice (T₁) relaxation value ([1]; 1 mM solution in water): 104 ms; spin-spin (T₂) relaxation value ([1]; 1 mM solution in water): 26 ms
8 | CC(=O)[O-].CC(=O)[O-].NCC(=O)O.NCC(=O)O.NCC(=O)O.NCC(=O)O.[Mn+2] [[Manganese(II)·(Glycine)₄]Diacetate] | – | – | – | – | – | – | – | – | Relaxivity (mM⁻¹sec⁻¹) Spin-Lattice ([1]; 1 mM solution in water): 8.00 mM⁻¹ s⁻¹; Relaxivity (mM⁻¹sec⁻¹) Spin-Spin ([1]; 1 mM solution in water): 33.3 mM⁻¹ s⁻¹
9 | CC(=O)[O-].CC(=O)[O-].NCC(=O)O.NCC(=O)O.NCC(=O)O.O.[Mn+2] [[Manganese(II)·(H₂O)·(Glycine)₃]Diacetate] | – | – | – | – | – | – | – | – | Relaxivity (mM⁻¹sec⁻¹) Spin-Lattice ([1]; 1 mM solution in water): 8.47 mM⁻¹ s⁻¹; Relaxivity (mM⁻¹sec⁻¹) Spin-Spin ([1]; 1 mM solution in water): 33.3 mM⁻¹ s⁻¹
10 | CC(=O)[O-].CC(=O)[O-].NCC(=O)O.O.O.O.[Mn+2] [[Manganese(II)·(H₂O)₃]·(Glycine)]Diacetate] | – | – | – | – | – | – | – | – | Relaxivity (mM⁻¹sec⁻¹) Spin-Lattice ([1]; 1 mM solution in water): 8.26 mM⁻¹ s⁻¹; Relaxivity (mM⁻¹sec⁻¹) Spin-Spin ([1]; 1 mM solution in water): 33.3 mM⁻¹ s⁻¹; Spin-Spin Relaxivity ([1]; 37°C): 33.30 mM⁻¹ s⁻¹
11 | CC(=O)[O-].CC(=O)[O-].O.O.O.O.[Mn+2] [[Manganese(II)·(H₂O)₄]Diacetate, reference compound] | – | – | – | – | – | – | – | – | Relaxivity (mM⁻¹sec⁻¹) Spin-Lattice ([1]; 1 mM solution in water): 9.09 mM⁻¹ s⁻¹; Relaxivity (mM⁻¹sec⁻¹) Spin-Spin ([1]; 1 mM solution in water): 33.3 mM⁻¹ s⁻¹; Spin-Spin Relaxivity ([1]; 37°C): 33.30 mM⁻¹ s⁻¹
12 | NCC(=O)[O-].NCC(=O)[O-].O.O.O.O.O.O.O=S(=O)([O-])[O-].[Mn+2].[Mn+2] [[Manganese(II)·CH₂(NH₂)COO-]₂⁺¹(SO₄^=), reference compound] | – | – | – | – | – | – | – | – | Spin-Spin Relaxivity ([1]; 37°C): 2.92 mM⁻¹ s⁻¹
13 | NCC(=O)O.N[C@@H](CO)C(=O)O.N[C@@H](Cc1c[nH]cn1)C(=O)O.O=C(O)[C@@H]1CCCN1.O=S(=O)([O-])[O-].[Mn+2] [[Manganese(II)·Glycine·L-Serine·L-Histidine·L-Proline](Sulfate)] | 9.71 | 35.7 | – | – | – | – | – | – | spin-lattice (T₁) relaxation value ([1]; 1 mM solution in water): 103 ms; spin-spin (T₂) relaxation value ([1]; 1 mM solution in water): 28 ms
14 | [Manganese(II)(H₂O)₂(L-serine)₂](Glycerophosphate) | 6.80 | 18.5 | – | – | – | – | – | – | spin-lattice (T₁) relaxation value ([1]; 1 mM solution in water): 147 ms; spin-spin (T₂) relaxation value ([1]; 1 mM solution in water): 54 ms
